Laboratory results from patent EP4786487A1, “PEPTIDE” (Peptidream Inc, priority 2023, dated 2025).
Where two headings read alike, the source gives them in different places. Starred links: 1 amine or outer side, 2 acyl side, 3 side chain; linkers in the order of their positions; H or OH if unused. Positions of bridges follow the written chain, without caps; N, C: chain ends. Non-standard residues stand in square brackets, D forms with d. Residues, ends and D or L forms follow the SMILES beside them. X16 = O=C([C@H](Cc1c[nH]c2c(-c3cccc(Cl)c3)cccc12)N[*:1])[*:2]; X8 = COc1ccc(-n2cc(C[C@H](N[*:1])C(=O)[*:2])c3ccccc32)cc1; X3 = O=C(O)COc1ccccc1-c1ccc(C[C@H](N[*:1])C(=O)[*:2])cc1; Phe(3-OCH2COOH) = N[C@@H](Cc1cccc(OCC(=O)O)c1)C(=O)O; Trp(6-OH) = N[C@@H](Cc1c[nH]c2cc(O)ccc12)C(=O)O; Phe(4-COOH) = N[C@@H](Cc1ccc(C(=O)O)cc1)C(=O)O; Gly(N(CH2)3COOH) = O=C(O)CCCNCC(=O)O; X1 = CCCCCCC[C@H](N[*:1])C(=O)[*:2]; NMeF = CN[C@@H](Cc1ccccc1)C(=O)O; NMeA = CN[C@@H](C)C(=O)O

What was measured:
GDF-11 = target: T1, GDF-11 (Homo sapiens, UniProt O95390); experiment: HepG2 reporter gene assay, Evaluation Procedure (2): 2-concentrations assay, GDF-11 inhibition; type: cell-based
T1 construct: purchased R&D systems 1958-GD-G8/CF
T1 sequence (O95390 299-407): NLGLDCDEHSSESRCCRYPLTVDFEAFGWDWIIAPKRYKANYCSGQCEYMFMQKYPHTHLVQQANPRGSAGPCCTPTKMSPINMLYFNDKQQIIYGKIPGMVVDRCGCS
Procedure, shortened: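 HepG2 cells carrying the transfected pGL3(CAGA)12-luc reporter, a pGL3 vector with luciferase placed downstream of 12 CAGA repeats, were stimulated with GDF-11 at a final 10 ng/mL together with test peptide. Blank wells received no GDF-11 and no peptide. Plates were incubated 20 to 24 hours at 37°C with 5% CO2. Luminescence from One-Glo substrate was read to calculate percent inhibition.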

Myostatin = target: T2, Myostatin (Homo sapiens, UniProt O14793); experiment: HepG2 reporter gene assay, Evaluation Procedure (2): 2-concentrations assay, myostatin inhibition; type: cell-based
T2 construct: active myostatin (also called mature myostatin) is a homodimer consisting of two C-terminal growth factor domains; purchased R&D systems 788-G8/CF
T2 sequence (O14793 267-375): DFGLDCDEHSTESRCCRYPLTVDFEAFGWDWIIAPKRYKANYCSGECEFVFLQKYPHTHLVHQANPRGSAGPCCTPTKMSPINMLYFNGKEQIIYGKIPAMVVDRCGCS
Procedure, shortened: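 HepG2 cells (HB-8065, ATCC) carrying the transfected pGL3(CAGA)12-luc reporter plasmid were treated with myostatin (788-G8/CF, R&D systems) at a final concentration of 10 ng/mL plus peptide and incubated at 37°C, 5% CO2 for 20 to 24 hours. Luminescence was read after adding PBS mixed 1:1 with One-Glo substrate, and inhibition rate was calculated.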

[1] = HepG2, read-out: inhibition rate (GDF-11 inhibition assay), Table 7-3/7-4, GDF-11 10 ng/mL, peptide at the higher of the 2 concentrations
[2] = HepG2, read-out: inhibition rate (GDF-11 inhibition assay), Table 7-3/7-4, GDF-11 10 ng/mL, peptide at the lower of the 2 concentrations
[3] = HepG2, read-out: inhibition rate (myostatin inhibition assay)
[4] = HepG2, first GDF-11 column of Table 7-3/7-4, GDF-11 10 ng/mL, peptide at the lower of the 2 concentrations, read-out: inhibition rate (GDF-11 inhibition assay)
[5] = HepG2, second GDF-11 column of Table 7-3/7-4, GDF-11 10 ng/mL, peptide at the higher of the 2 concentrations, read-out: inhibition rate (GDF-11 inhibition assay)
[6] = Table 7-3/7-4, myostatin 10 ng/mL, peptide at the higher of the 2 concentrations, HepG2, read-out: inhibition rate (myostatin inhibition assay)
[7] = Table 7-3/7-4, myostatin 10 ng/mL, peptide at the lower of the 2 concentrations, HepG2, read-out: inhibition rate (myostatin inhibition assay)

inhibition (GDF-11; [4])	inhibition (GDF-11; [5])	inhibition at 0.1 µM (Myostatin; [6])	inhibition at 0.03 µM (Myostatin; [7])	Compound	inhibition (GDF-11; [1])	inhibition (GDF-11; [2])	inhibition at 0.03 µM (Myostatin; [3])	inhibition at 0.1 µM (Myostatin; [3])
–	–	–	–	CCCCCCC[C@@H]1NC(=O)[C@H](Cc2ccccc2)N(C)C(=O)[C@H](CCCNC(=N)N)NC(=O)[C@H](Cc2ccc(C(=O)O)cc2)NC(=O)[C@H](Cc2ccc(-c3ccccc3OCC(=O)O)cc2)NC(=O)[C@H](C)N(C)C(=O)[C@H]([C@@H](C)CC)NC(=O)[C@H](Cc2ccccc2)N(C)C(=O)[C@H](Cc2ccc(O)cc2)NC(=O)[C@H](Cc2c[nH]c3ccccc23)NC(=O)[C@H](C)NC(=O)CN(CCCC(=O)O)C(=O)CSC[C@H](C(=O)O)NC(=O)[C@H](Cc2ccccc2)N(C)C(=O)[C@H](C)N(C)C1=O [Myostatin_99_v371] ({CH2CO}-[Gly(N(CH2)3COOH)]AWY[NMeF]I[NMeA][X3][Phe(4-COOH)]R[NMeF][X1][NMeA][NMeF][dC]-OH; thioether N-15)	0%	0%	100%	100%
–	–	–	–	CCCCCCC[C@@H]1NC(=O)[C@H](Cc2ccccc2)N(C)C(=O)[C@H](CCCNC(=N)N)NC(=O)[C@H](Cc2ccc(C(=O)O)cc2)NC(=O)[C@H](Cc2ccc(-c3ccccc3OCC(=O)O)cc2)NC(=O)[C@H](C)N(C)C(=O)[C@H]([C@@H](C)CC)NC(=O)[C@H](Cc2ccccc2)N(C)C(=O)[C@H](Cc2ccc(O)cc2)NC(=O)[C@H](Cc2c[nH]c3cc(O)ccc23)NC(=O)[C@H](C)NC(=O)CN(CCCC(=O)O)C(=O)CSC[C@H](C(=O)O)NC(=O)[C@H](Cc2ccccc2)N(C)C(=O)[C@H](C)N(C)C1=O [Myostatin_99_v373] ({CH2CO}-[Gly(N(CH2)3COOH)]A[Trp(6-OH)]Y[NMeF]I[NMeA][X3][Phe(4-COOH)]R[NMeF][X1][NMeA][NMeF][dC]-OH; thioether N-15)	47%	0%	100%	100%
0%	0%	100%	99%	CCCCCCC[C@@H]1NC(=O)[C@H](Cc2ccccc2)N(C)C(=O)[C@H](CCCNC(=N)N)NC(=O)[C@H](Cc2ccc(C(=O)O)cc2)NC(=O)[C@H](Cc2cccc(OCC(=O)O)c2)NC(=O)[C@H](C)N(C)C(=O)[C@H]([C@@H](C)CC)NC(=O)[C@H](Cc2ccccc2)N(C)C(=O)[C@H](Cc2ccc(O)cc2)NC(=O)[C@H](Cc2c[nH]c3c(-c4cccc(Cl)c4)cccc23)NC(=O)[C@H](C)NC(=O)CN(CCCC(=O)O)C(=O)CSC[C@H](C(=O)O)NC(=O)[C@H](Cc2ccccc2)N(C)C(=O)[C@H](C)N(C)C1=O [Myostatin_99_v378] ({CH2CO}-[Gly(N(CH2)3COOH)]A[X16]Y[NMeF]I[NMeA][Phe(3-OCH2COOH)][Phe(4-COOH)]R[NMeF][X1][NMeA][NMeF][dC]-OH; thioether N-15)	–	–	–	–
0%	0%	100%	100%	CCCCCCC[C@@H]1NC(=O)[C@H](Cc2ccccc2)N(C)C(=O)[C@H](CCCNC(=N)N)NC(=O)[C@H](Cc2ccc(C(=O)O)cc2)NC(=O)[C@H](Cc2cccc(OCC(=O)O)c2)NC(=O)[C@H](C)N(C)C(=O)[C@H]([C@@H](C)CC)NC(=O)[C@H](Cc2ccccc2)N(C)C(=O)[C@H](Cc2ccc(O)cc2)NC(=O)[C@H](Cc2cn(-c3ccc(OC)cc3)c3ccccc23)NC(=O)[C@H](C)NC(=O)CN(CCCC(=O)O)C(=O)CSC[C@H](C(=O)O)NC(=O)[C@H](Cc2ccccc2)N(C)C(=O)[C@H](C)N(C)C1=O [Myostatin_99_v379] ({CH2CO}-[Gly(N(CH2)3COOH)]A[X8]Y[NMeF]I[NMeA][Phe(3-OCH2COOH)][Phe(4-COOH)]R[NMeF][X1][NMeA][NMeF][dC]-OH; thioether N-15)	–	–	–	–
